The text below walks through data of ChEMBL document CHEMBL1153884, “Oligonucleotide-polyamine conjugates: influence of length and position of 2'-attached polyamines on duplex stability and antisense effect” (2009).

Experiment [1] is described as follows: Antisense effect in human 607B cells assessed as down-regulation of bcl2 expression at 100 nM after 48 hrs by Western blot analysis relative to control. Format: functional. (In general: In western blotting, separated proteins are transferred to a membrane and probed.)
Experiment [2] has as its system Nucleic Acid. In words: Duplex stability of RNA counter strand assessed as melting temperature. The format is nucleic-acid assay.
The subject of experiment [3] is Nucleic Acid. In words: Duplex stability of DNA counter strand assessed as melting temperature. The format is nucleic-acid assay.

On to `Cc1cn([C@H]2C[C@H](OP(O)(=S)OC[C@H]3O[C@@H](n4ccc(N)nc4=O)[C@H](O)[C@@H]3OP(O)(=S)OC[C@H]3O[C@@H](n4cc(C)c(=O)[nH]c4=O)C[C@@H]3O)[C@@H](COP(O)(=S)O[C@H]3[C@@H](O)[C@H](n4ccc(N)nc4=O)O[C@@H]3COP(O)(=S)O[C@H]3[C@@H](O)[C@H](n4ccc(N)nc4=O)O[C@@H]3COP(O)(=S)O[C@H]3[C@@H](O)[C@H](n4ccc(N)nc4=O)O[C@@H]3COP(O)(=S)O[C@H]3[C@@H](O)[C@H](n4cnc5c(N)ncnc54)O[C@@H]3COP(O)(=S)O[C@H]3[C@@H](O)[C@H](n4cnc5c(=O)[nH]c(N)nc54)O[C@@H]3COP(O)(=S)O[C@H]3[C@@H](O)[C@H](n4ccc(N)nc4=O)O[C@@H]3COP(O)(=S)O[C@H]3[C@@H](O)[C@H](n4cnc5c(=O)[nH]c(N)nc54)O[C@@H]3COP(O)(=S)O[C@H]3C[C@H](n4cc(C)c(=O)[nH]c4=O)O[C@@H]3COP(O)(=S)O[C@H]3[C@@H](O)[C@H](n4cnc5c(=O)[nH]c(N)nc54)O[C@@H]3COP(O)(=S)O[C@H]3[C@@H](O)[C@H](n4ccc(N)nc4=O)O[C@@H]3COP(O)(=S)O[C@H]3[C@@H](O)[C@H](n4cnc5c(=O)[nH]c(N)nc54)O[C@@H]3COP(O)(=S)O[C@H]3[C@@H](O)[C@H](n4ccc(N)nc4=O)O[C@@H]3COP(O)(=S)O[C@H]3[C@@H](O)[C@H](n4ccc(N)nc4=O)O[C@@H]3COP(O)(=S)O[C@H]3[C@@H](O)[C@H](n4cnc5c(N)ncnc54)O[C@@H]3COP(O)(=S)O[C@H]3[C@@H](NCCCCN)[C@H](n4ccc(=O)[nH]c4=O)O[C@@H]3CO)O2)c(=O)[nH]c1=O` (stereo partly specified), for which the Activity in experiment [1] came out at 70.6%. Moreover, the Tm in the experiment with Nucleic Acid [2] was found to be 50.1 °C; with Nucleic Acid [3] it was 67.6 °C.

Regarding `Cc1cn([C@H]2C[C@H](OP(O)(=S)OC[C@H]3O[C@@H](n4ccc(N)nc4=O)[C@H](O)[C@@H]3OP(O)(=S)OC[C@H]3O[C@@H](n4cc(C)c(=O)[nH]c4=O)C[C@@H]3O)[C@@H](COP(O)(=S)O[C@H]3[C@@H](O)[C@H](n4ccc(N)nc4=O)O[C@@H]3COP(O)(=S)O[C@H]3[C@@H](O)[C@H](n4ccc(N)nc4=O)O[C@@H]3COP(O)(=S)O[C@H]3[C@@H](O)[C@H](n4ccc(N)nc4=O)O[C@@H]3COP(O)(=S)O[C@H]3[C@@H](O)[C@H](n4cnc5c(N)ncnc54)O[C@@H]3COP(O)(=S)O[C@H]3[C@@H](O)[C@H](n4cnc5c(=O)[nH]c(N)nc54)O[C@@H]3COP(O)(=S)O[C@H]3[C@@H](O)[C@H](n4ccc(N)nc4=O)O[C@@H]3COP(O)(=S)O[C@H]3[C@@H](O)[C@H](n4cnc5c(=O)[nH]c(N)nc54)O[C@@H]3COP(O)(=S)O[C@H]3C[C@H](n4cc(C)c(=O)[nH]c4=O)O[C@@H]3COP(O)(=S)O[C@H]3[C@@H](O)[C@H](n4cnc5c(=O)[nH]c(N)nc54)O[C@@H]3COP(O)(=S)O[C@H]3[C@@H](O)[C@H](n4ccc(N)nc4=O)O[C@@H]3COP(O)(=S)O[C@H]3[C@@H](O)[C@H](n4cnc5c(=O)[nH]c(N)nc54)O[C@@H]3COP(O)(=S)O[C@H]3[C@@H](O)[C@H](n4ccc(N)nc4=O)O[C@@H]3COP(O)(=S)O[C@H]3[C@@H](O)[C@H](n4ccc(N)nc4=O)O[C@@H]3COP(O)(=S)O[C@H]3[C@@H](O)[C@H](n4cnc5c(N)ncnc54)O[C@@H]3COP(O)(=S)O[C@H]3[C@@H](NCCCCNCCN)[C@H](n4ccc(=O)[nH]c4=O)O[C@@H]3CO)O2)c(=O)[nH]c1=O` (stereo partly specified), the Activity in experiment [1] is 57.6%. Further, the Tm is 51.4 °C in the experiment on Nucleic Acid [2] and 65.1 °C in the experiment on Nucleic Acid [3].

As for `Cc1cn([C@H]2C[C@H](OP(O)(=S)OC[C@H]3O[C@@H](n4cnc5c(N)ncnc54)[C@H](O)[C@@H]3OP(O)(=S)OC[C@H]3O[C@@H](n4ccc(N)nc4=O)[C@H](O)[C@@H]3OP(O)(=S)OC[C@H]3O[C@@H](n4ccc(N)nc4=O)[C@H](O)[C@@H]3OP(O)(=S)OC[C@H]3O[C@@H](n4cnc5c(=O)[nH]c(N)nc54)[C@H](O)[C@@H]3OP(O)(=S)OC[C@H]3O[C@@H](n4ccc(N)nc4=O)[C@H](O)[C@@H]3OP(O)(=S)OC[C@H]3O[C@@H](n4cnc5c(=O)[nH]c(N)nc54)[C@H](O)[C@@H]3OP(O)(=S)OC[C@H]3O[C@@H](n4cc(C)c(=O)[nH]c4=O)C[C@@H]3OP(O)(=S)OC[C@H]3O[C@@H](n4cnc5c(=O)[nH]c(N)nc54)[C@H](O)[C@@H]3OP(O)(=S)OC[C@H]3O[C@@H](n4ccc(N)nc4=O)[C@H](O)[C@@H]3OP(O)(=S)OC[C@H]3O[C@@H](n4cnc5c(=O)[nH]c(N)nc54)[C@H](O)[C@@H]3OP(O)(=S)OC[C@H]3O[C@@H](n4cnc5c(N)ncnc54)[C@H](O)[C@@H]3OP(O)(=S)OC[C@H]3O[C@@H](n4ccc(N)nc4=O)[C@H](O)[C@@H]3OP(O)(=S)OC[C@H]3O[C@@H](n4ccc(N)nc4=O)[C@H](O)[C@@H]3OP(O)(=S)OC[C@H]3O[C@@H](n4ccc(N)nc4=O)[C@H](O)[C@@H]3OP(O)(=S)OC[C@H]3O[C@@H](n4cc(C)c(=O)[nH]c4=O)C[C@@H]3OP(O)(=S)OC[C@H]3O[C@@H](n4ccc(N)nc4=O)[C@H](O)[C@@H]3OP(O)(=S)OC[C@H]3O[C@@H](n4cc(C)c(=O)[nH]c4=O)C[C@@H]3O)[C@@H](CO)O2)c(=O)[nH]c1=O` (stereo partly specified), in experiment [1], the Activity is on record as 25%. The Tm was 53.1 °C in the experiment on Nucleic Acid [2] and 71.4 °C with Nucleic Acid [3].

On to `Cc1cn([C@H]2C[C@H](OP(=O)(O)OC[C@H]3O[C@@H](n4cnc5c(N)ncnc54)[C@H](O)[C@@H]3OP(=O)(O)OC[C@H]3O[C@@H](n4ccc(N)nc4=O)[C@H](O)[C@@H]3OP(=O)(O)OC[C@H]3O[C@@H](n4ccc(N)nc4=O)[C@H](O)[C@@H]3OP(=O)(O)OC[C@H]3O[C@@H](n4cnc5c(=O)[nH]c(N)nc54)[C@H](O)[C@@H]3OP(=O)(O)OC[C@H]3O[C@@H](n4ccc(N)nc4=O)[C@H](O)[C@@H]3OP(=O)(O)OC[C@H]3O[C@@H](n4cnc5c(=O)[nH]c(N)nc54)[C@H](O)[C@@H]3OP(=O)(O)OC[C@H]3O[C@@H](n4cc(C)c(=O)[nH]c4=O)C[C@@H]3OP(=O)(O)OC[C@H]3O[C@@H](n4cnc5c(=O)[nH]c(N)nc54)[C@H](O)[C@@H]3OP(=O)(O)OC[C@H]3O[C@@H](n4ccc(N)nc4=O)[C@H](O)[C@@H]3OP(=O)(O)OC[C@H]3O[C@@H](n4cnc5c(=O)[nH]c(N)nc54)[C@H](O)[C@@H]3OP(=O)(O)OC[C@H]3O[C@@H](n4cnc5c(N)ncnc54)[C@H](O)[C@@H]3OP(=O)(O)OC[C@H]3O[C@@H](n4ccc(N)nc4=O)[C@H](O)[C@@H]3OP(=O)(O)OC[C@H]3O[C@@H](n4ccc(N)nc4=O)[C@H](O)[C@@H]3OP(=O)(O)OC[C@H]3O[C@@H](n4ccc(N)nc4=O)[C@H](O)[C@@H]3OP(=O)(O)OC[C@H]3O[C@@H](n4cc(C)c(=O)[nH]c4=O)C[C@@H]3OP(=O)(O)OC[C@H]3O[C@@H](n4ccc(N)nc4=O)[C@H](O)[C@@H]3OP(=O)(O)OC[C@H]3O[C@@H](n4cc(C)c(=O)[nH]c4=O)C[C@@H]3O)[C@@H](CO)O2)c(=O)[nH]c1=O`, for which the figures for the Tm with Nucleic Acid [2] and in the experiment on Nucleic Acid [3] were 65.3 °C and 79 °C, respectively.

As usually defined, the Tm is the temperature at the midpoint of the melting transition.
